15 molecules from patent publication US20230038929A1, “Fused Tricyclic Heterocyclic Compounds and Uses Thereof” (Verge Analytics, Inc., priority 2019, published 2023) can be followed below.

The structures appear in SMILES notation. Counter-ions that a name gives are not always drawn.

This assay has as its target T1, Full length human recombinant PIKFYVE (Homo sapiens, UniProt Q9Y2I7, L932S/Q1183K/Q995L/S1033A/S696N/T998S).
T1 construct: Full length human recombinant PIKFYVE; purchased Carna Biosciences (Kobe, Japan); host or cells: baculovirus expression system (insect cells)
Kind of assay: Inhibition of PIKfyve (microfluidic electrophoresis kinase assay). As to conditions: 2 nM enzyme, 1 μM PI3P, 3 h at room temperature, 12 concentrations; read-out: PIKfyve IC50. It counts as biochemical. As to the method: Biological Example 1: Inhibition of PIKfyve
Full length human recombinant PIKFYVE expressed in baculovirus expression system as N-terminal GST-fusion protein (265 kDa) was obtained from Carna Biosciences (Kobe, Japan). The kinase substrate was prepared by mixing and sonicating fluorescently-labeled phosphatidylinositol 3-phosphate (PI3P) with phospho-L-serine (PS) at a 1:10 ratio in 50 mM HEPES buffer pH7.5.
The kinase reactions were assembled in 384-well plates (Greiner) in a total volume of […] as follows. Kinase protein was pre-diluted in an assay buffer comprising 25 mM HEPES, pH 7.5, 1 mM DTT, 2.5 mM MgCl2, and 2.5 mM MnCl2, and 0.005% Triton X-100, and dispensed into a 384-well plate (10 μL per well). Test compounds were serially pre-diluted in DMSO and added to the protein samples by acoustic dispensing (Labcyte Echo). The concentration of DMSO was equalized to 1% in all samples. All test compounds were tested at 12 concentrations. Apilimod was used as a reference compound and was tested in identical manner in each assay plate. Control samples (0%-inhibition, in the absence of inhibitor, DMSO only) and 100%-inhibition (in the absence of enzyme) were assembled in replicates of four and were used to calculate %-inhibition in the presence of compounds. The reactions were initiated by addition of 10 μL of 2× PI3P/PS substrate supplemented with ATP. The final concentration of enzyme was 2 nM, the final concentration of ATP was […], and the final concentration of PI3P/PS substrate was 1 μM (PI3P). The kinase reactions were allowed to proceed for 3 h at room temperature. Following incubation, the reactions were quenched by addition of […] of termination buffer (100 mM HEPES, pH 7.5, 0.01% Triton X-100, 20 mM EDTA). Terminated plates were analyzed on a microfluidic electrophoresis instrument (Caliper LabChip® 3000, Caliper Life Sciences/Perkin Elmer). The change in the relative fluorescence intensity of the PI(3)P substrate and PI(3,5)P product peaks was measured. The activity in each test sample was determined as the product to sum ratio (PSR): P/(S+P), where P is the peak height of the product, and S is the peak height of the substrate. Percent inhibition (Pinh) was determined using the following equation:
Pinh=(PSR0%inh−PSRcompound)/(PSR0%inh−P100%inh)*100
in which PSRcompound is the product/sum ratio in the presence of compound, PSR0%inh is the product/sum ratio in the absence of compound, and the PSR100%inh is the product/sum ratio in the absence of the enzyme. To determine the ICso of test compounds (50%-inhibition) the %-inh cdata (Pinh versus compound concentration) were fitted by a four-parameter sigmoid dose-response model using XLfit software (IDBS).

T1 sequence (Q9Y2I7 whole entry S696N/L932S/Q995L/T998S/S1033A/Q1183K): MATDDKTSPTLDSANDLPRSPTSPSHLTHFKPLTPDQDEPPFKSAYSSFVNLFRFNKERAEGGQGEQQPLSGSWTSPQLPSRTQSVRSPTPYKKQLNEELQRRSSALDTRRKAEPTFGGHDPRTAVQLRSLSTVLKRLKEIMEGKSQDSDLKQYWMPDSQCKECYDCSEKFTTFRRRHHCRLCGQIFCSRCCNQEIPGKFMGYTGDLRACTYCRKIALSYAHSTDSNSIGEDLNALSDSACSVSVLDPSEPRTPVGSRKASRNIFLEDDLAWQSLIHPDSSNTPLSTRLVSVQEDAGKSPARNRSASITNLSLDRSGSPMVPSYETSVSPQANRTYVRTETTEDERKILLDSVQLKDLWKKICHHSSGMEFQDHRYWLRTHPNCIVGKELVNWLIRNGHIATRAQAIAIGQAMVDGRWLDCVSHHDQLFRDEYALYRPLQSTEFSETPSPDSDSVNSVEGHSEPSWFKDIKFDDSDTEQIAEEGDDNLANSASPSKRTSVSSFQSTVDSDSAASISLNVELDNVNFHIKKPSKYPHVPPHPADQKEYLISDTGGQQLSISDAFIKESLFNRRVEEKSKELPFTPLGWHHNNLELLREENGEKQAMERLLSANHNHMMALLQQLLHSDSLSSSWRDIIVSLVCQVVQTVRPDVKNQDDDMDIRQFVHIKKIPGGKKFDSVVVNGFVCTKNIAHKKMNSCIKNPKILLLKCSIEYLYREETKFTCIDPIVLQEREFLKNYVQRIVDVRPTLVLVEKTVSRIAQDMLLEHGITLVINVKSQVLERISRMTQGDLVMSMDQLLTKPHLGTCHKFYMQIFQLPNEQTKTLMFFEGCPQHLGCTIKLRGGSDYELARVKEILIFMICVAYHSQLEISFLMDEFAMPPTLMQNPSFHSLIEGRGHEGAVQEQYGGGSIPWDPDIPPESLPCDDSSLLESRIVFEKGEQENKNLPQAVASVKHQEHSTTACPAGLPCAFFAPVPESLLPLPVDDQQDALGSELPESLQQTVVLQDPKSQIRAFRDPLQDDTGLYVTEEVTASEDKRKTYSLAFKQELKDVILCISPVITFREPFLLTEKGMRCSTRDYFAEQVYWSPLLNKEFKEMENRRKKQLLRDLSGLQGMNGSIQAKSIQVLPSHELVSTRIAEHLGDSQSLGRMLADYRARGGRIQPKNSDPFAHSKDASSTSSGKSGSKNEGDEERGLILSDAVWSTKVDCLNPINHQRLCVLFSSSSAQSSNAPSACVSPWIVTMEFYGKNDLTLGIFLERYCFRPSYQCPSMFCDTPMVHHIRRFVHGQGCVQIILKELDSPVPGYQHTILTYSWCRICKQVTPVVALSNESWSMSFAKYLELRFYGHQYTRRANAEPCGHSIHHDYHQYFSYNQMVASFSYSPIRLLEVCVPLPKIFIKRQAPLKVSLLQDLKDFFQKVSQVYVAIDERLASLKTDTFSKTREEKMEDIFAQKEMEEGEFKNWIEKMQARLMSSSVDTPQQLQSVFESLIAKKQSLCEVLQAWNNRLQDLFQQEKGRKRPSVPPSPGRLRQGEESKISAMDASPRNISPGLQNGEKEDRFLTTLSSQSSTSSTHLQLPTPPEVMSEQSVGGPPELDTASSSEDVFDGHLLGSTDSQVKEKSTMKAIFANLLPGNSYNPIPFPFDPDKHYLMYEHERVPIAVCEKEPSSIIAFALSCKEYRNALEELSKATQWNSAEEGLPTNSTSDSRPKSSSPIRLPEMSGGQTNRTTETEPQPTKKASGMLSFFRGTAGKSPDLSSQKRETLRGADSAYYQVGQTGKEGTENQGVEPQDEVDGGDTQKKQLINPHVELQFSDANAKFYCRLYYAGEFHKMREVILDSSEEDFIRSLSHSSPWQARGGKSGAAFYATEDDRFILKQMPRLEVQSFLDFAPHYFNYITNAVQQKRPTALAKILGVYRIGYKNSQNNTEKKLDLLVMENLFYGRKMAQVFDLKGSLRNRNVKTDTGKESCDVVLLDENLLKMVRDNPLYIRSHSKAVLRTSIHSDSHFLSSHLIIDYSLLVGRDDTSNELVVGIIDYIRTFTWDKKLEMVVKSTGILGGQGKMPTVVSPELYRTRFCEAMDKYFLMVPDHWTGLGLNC

As for `FC(F)(F)Oc1cccc(-c2cc(Nc3nc(N4CCOCC4)c4oc5ncccc5c4n3)[nH]n2)c1` [Example 35, 4-morpholino-N-(3-(3-(trifluoromethoxy)phenyl)-1H-pyrazol-5-yl)pyrido[3′,2′:4,5]furo[3,2-d]pyrimidin-2-amine hydrochloride], the IC50 (usually the concentration at which inhibition is half-maximal) stood at 1540 nM.
Regarding `c1cnc2oc3c(N4CCOCC4)nc(Nc4ccncn4)nc3c2c1` [Example 41, 4-morpholino-N-(pyrimidin-4-yl)pyrido[3′,2′:4,5]furo[3,2-d]pyrimidin-2-amine], the IC50 is above 10000 nM.
`c1cnc(Nc2nc(N3CCOCC3)c3oc4ncccc4c3n2)nc1` [Example 42, 4-morpholino-N-(pyrimidin-2-yl)pyrido[3′,2′:4,5]furo[3,2-d]pyrimidin-2-amine]: the IC50 was above 10000 nM.
To `c1ccc(-c2ccc(Nc3nc(N4CCOCC4)c4oc5ncccc5c4n3)cc2)cc1` [Example 44, N-([1,1′-biphenyl]-4-yl)-4-morpholinopyrido[3′,2′:4,5]furo[3,2-d]pyrimidin-2-amine] belongs 356 nM; to `c1ccc(-c2cccc(Nc3nc(N4CCOCC4)c4oc5ncccc5c4n3)c2)cc1` [Example 45, N-([1,1′-biphenyl]-3-yl)-4-morpholinopyrido[3′,2′:4,5]furo[3,2-d]pyrimidin-2-amine], 3980 nM; to `c1ccc(-c2ccccc2Nc2nc(N3CCOCC3)c3oc4ncccc4c3n2)cc1` [Example 46, N-([1,1′-biphenyl]-2-yl)-4-morpholinopyrido[3′,2′:4,5]furo[3,2-d]pyrimidin-2-amine], 3870 nM.
As to `Cc1ccccc1-c1cc(Nc2nc(N3CCOCC3)c3oc4ncccc4c3n2)[nH]n1` [Example 48, 4-morpholino-N-(3-(o-tolyl)-1H-pyrazol-5-yl)pyrido[3′,2′:4,5]furo[3,2-d]pyrimidin-2-amine], the IC50 worked out at 515 nM.
On to `Cc1ccc(-c2cc(Nc3nc(N4CCOCC4)c4oc5ncccc5c4n3)[nH]n2)cc1` [Example 50, 4-morpholino-N-(3-(p-tolyl)-1H-pyrazol-5-yl)pyrido[3′,2′:4,5]furo[3,2-d]pyrimidin-2-amine], for which the IC50 was 398 nM.
To `Brc1cnc2oc3c(N4CCOCC4)nc(Nc4cc(-c5ccccc5)[nH]n4)nc3c2c1` [Example 51, 8-bromo-4-morpholino-N-(5-phenyl-1H-pyrazol-3-yl)pyrido[3′,2′:4,5]furo[3,2-d]pyrimidin-2-amine] belongs 862 nM; to `c1cnc2oc3c(N4CCOCC4)ncnc3c2c1` [Example 52, 4-Morpholinopyrido[3′,2′:4,5]furo[3,2-d]pyrimidine], above 10000 nM; to `c1cnc2oc3c(N4CCOCC4)nc(Nc4cc(C5CC5)n[nH]4)nc3c2c1` [Example 53, N-(3-cyclopropyl-1H-pyrazol-5-yl)-4-morpholinopyrido[3′,2′:4,5]furo[3,2-d]pyrimidin-2-amine hydrochloride], 2090 nM.
To `c1cnc2oc3c(N4CCOCC4)nc(Nc4cc(CC5CC5)n[nH]4)nc3c2c1` [Example 54, N-(3-(cyclopropylmethyl)-1H-pyrazol-5-yl)-4-morpholinopyrido[3′,2′:4,5]furo[3,2-d]pyrimidin-2-amine hydrochloride] belongs 2600 nM.
To `FC(F)(F)c1cc(Nc2nc(N3CCOCC3)c3oc4ncccc4c3n2)[nH]n1` [Example 57, 4-morpholino-N-(3-(trifluoromethyl)-1H-pyrazol-5-yl)pyrido[3′,2′:4,5]furo[3,2-d]pyrimidin-2-amine hydrochloride] belongs 5900 nM; to `c1ccc(Cc2cc(Nc3nc(N4CCOCC4)c4oc5ncccc5c4n3)[nH]n2)cc1` [Example 58, N-(3-benzyl-1H-pyrazol-5-yl)-4-morpholinopyrido[3′,2′:4,5]furo[3,2-d]pyrimidin-2-amine hydrochloride], 831 nM.
As for `c1cnc2oc3c(N4CCOCC4)nc(Nc4cc(C5CCCC5)n[nH]4)nc3c2c1` [Example 59, N-(3-cyclopentyl-1H-pyrazol-5-yl)-4-morpholinopyrido[3′,2′:4,5]furo[3,2-d]pyrimidin-2-amine hydrochloride], the IC50 came out at 1290 nM.
